# Data reported in the supplement of paper PMC10307832.
# Tests used:
# Test in all cases: relative viability (nuclei count vs DMSO), 5 days (fraction); higher = more cells survive
# UMC-11 = system: UMC-11
# In short: (§1)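 A single step with final 0.05% Triton X-100, 1% formaldehyde and 1 ug/ml Hoechst fixed the cells and stained nuclei 5 days after treatment. Lung cancer cell lines in 1536-well plates had been treated by pin tool the day after seeding with one drug alone or a fixed anchor-drug dose plus five library-drug doses (not always all listed) in √10 steps, and nuclei were counted on 4× images. Relative viability is the ratio of nuclei in treated wells to nuclei in vehicle wells, taken as the median of duplicate plates.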
# NCI-H1975 = system: NCI-H1975
# In short: as §1
# NCI-H2087 = system: NCI-H2087
# In short: as §1
# NCI-H2009 = system: NCI-H2009
# In short: as §1
# H3255 = system: H3255
# In short: as §1
# NCI-H2085 = system: NCI-H2085
# In short: as §1
# NCI-H23 = system: NCI-H23
# In short: as §1
# HCC-827 = system: HCC-827
# In short: as §1
# LXF-289 = system: LXF-289
# In short: as §1
# PC-3 [JPC-3] = system: PC-3 [JPC-3]
# In short: as §1
# NCI-H1437 = system: NCI-H1437
# In short: as §1
# LC-2-ad = system: LC-2-ad
# In short: as §1
# LCLC-103H = system: LCLC-103H
# In short: as §1
# NCI-H661 = system: NCI-H661
# In short: as §1
# NCI-H2342 = system: NCI-H2342
# In short: as §1
# COR-L23 = system: COR-L23
# In short: as §1
# NCI-H2228 = system: NCI-H2228
# In short: as §1
# ABC-1 = system: ABC-1
# In short: as §1
# HCC-366 = system: HCC-366
# In short: as §1
# SK-MES-1 = system: SK-MES-1
# In short: as §1
# PC-14 = system: PC-14
# In short: as §1
# HCC-15 = system: HCC-15
# In short: as §1
# NCI-H1666 = system: NCI-H1666
# In short: as §1
smiles,measurement,setting,value
Cc1cn(-c2cc(NC(=O)c3ccc(C)c(Nc4nccc(-c5cccnc5)n4)c3)cc(C(F)(F)F)c2)cn1 [Nilotinib] + N=C(N)NC(=N)NCCc1ccccc1 [Phenformin] (partner 250 µM),relative viability,UMC-11; first compound 0.001 µM,0.312
same,relative viability,UMC-11; first compound 0.003162 µM,0.344
same,relative viability,UMC-11; first compound 0.01 µM,0.324
same,relative viability,UMC-11; first compound 0.1 µM,0.217
same,relative viability,NCI-H1975; first compound 0.001 µM,0.406
same,relative viability,NCI-H1975; first compound 0.003162 µM,0.438
same,relative viability,NCI-H1975; first compound 0.01 µM,0.413
same,relative viability,NCI-H1975; first compound 0.03162 µM,0.363
same,relative viability,NCI-H1975; first compound 0.1 µM,0.378
same,relative viability,NCI-H2087; first compound 0.001 µM,0.403
same,relative viability,NCI-H2087; first compound 0.003162 µM,0.518
same,relative viability,NCI-H2087; first compound 0.01 µM,0.519
same,relative viability,NCI-H2087; first compound 0.03162 µM,0.301
same,relative viability,NCI-H2087; first compound 0.1 µM,0.215
same,relative viability,NCI-H2009; first compound 0.001 µM,0.417
same,relative viability,NCI-H2009; first compound 0.003162 µM,0.464
same,relative viability,NCI-H2009; first compound 0.01 µM,0.463
same,relative viability,NCI-H2009; first compound 0.03162 µM,0.387
same,relative viability,NCI-H2009; first compound 0.1 µM,0.338
same,relative viability,H3255; first compound 0.001 µM,0.382
same,relative viability,H3255; first compound 0.003162 µM,0.303
same,relative viability,H3255; first compound 0.03162 µM,0.403
same,relative viability,H3255; first compound 0.1 µM,0.407
same,relative viability,NCI-H2085; first compound 0.001 µM,0.76
same,relative viability,NCI-H2085; first compound 0.003162 µM,0.749
same,relative viability,NCI-H2085; first compound 0.01 µM,0.769
same,relative viability,NCI-H2085; first compound 0.03162 µM,0.493
same,relative viability,NCI-H2085; first compound 0.1 µM,0.581
same,relative viability,NCI-H23; first compound 0.001 µM,0.706
same,relative viability,NCI-H23; first compound 0.003162 µM,0.58
same,relative viability,NCI-H23; first compound 0.01 µM,0.891
same,relative viability,NCI-H23; first compound 0.03162 µM,0.624
same,relative viability,NCI-H23; first compound 0.1 µM,0.594
same,relative viability,HCC-827; first compound 0.003162 µM,0.436
same,relative viability,HCC-827; first compound 0.01 µM,0.384
same,relative viability,HCC-827; first compound 0.03162 µM,0.438
same,relative viability,HCC-827; first compound 0.1 µM,0.384
same,relative viability,LXF-289; first compound 0.001 µM,0.545
same,relative viability,LXF-289; first compound 0.003162 µM,0.562
same,relative viability,LXF-289; first compound 0.01 µM,0.558
same,relative viability,LXF-289; first compound 0.03162 µM,0.506
same,relative viability,LXF-289; first compound 0.1 µM,0.454
same,relative viability,PC-3 [JPC-3]; first compound 0.001 µM,0.463
same,relative viability,PC-3 [JPC-3]; first compound 0.003162 µM,0.49
same,relative viability,PC-3 [JPC-3]; first compound 0.01 µM,0.475
same,relative viability,PC-3 [JPC-3]; first compound 0.03162 µM,0.443
same,relative viability,PC-3 [JPC-3]; first compound 0.1 µM,0.482
same,relative viability,NCI-H1437; first compound 0.001 µM,0.325
same,relative viability,NCI-H1437; first compound 0.003162 µM,0.335
same,relative viability,NCI-H1437; first compound 0.01 µM,0.331
same,relative viability,NCI-H1437; first compound 0.03162 µM,0.23
same,relative viability,NCI-H1437; first compound 0.1 µM,0.224
same,relative viability,LC-2-ad; first compound 0.001 µM,0.647
same,relative viability,LC-2-ad; first compound 0.003162 µM,0.659
same,relative viability,LC-2-ad; first compound 0.01 µM,0.557
same,relative viability,LC-2-ad; first compound 0.03162 µM,0.609
same,relative viability,LC-2-ad; first compound 0.1 µM,0.562
same,relative viability,LCLC-103H; first compound 0.001 µM,0.326
same,relative viability,LCLC-103H; first compound 0.003162 µM,0.307
same,relative viability,LCLC-103H; first compound 0.01 µM,0.338
same,relative viability,LCLC-103H; first compound 0.03162 µM,0.333
same,relative viability,LCLC-103H; first compound 0.1 µM,0.288
same,relative viability,NCI-H661; first compound 0.001 µM,0.307
same,relative viability,NCI-H661; first compound 0.003162 µM,0.268
same,relative viability,NCI-H661; first compound 0.03162 µM,0.279
same,relative viability,NCI-H661; first compound 0.1 µM,0.288
same,relative viability,NCI-H2342; first compound 0.001 µM,0.534
same,relative viability,NCI-H2342; first compound 0.003162 µM,0.614
same,relative viability,NCI-H2342; first compound 0.01 µM,0.556
same,relative viability,NCI-H2342; first compound 0.03162 µM,0.523
same,relative viability,NCI-H2342; first compound 0.1 µM,0.504
same,relative viability,COR-L23; first compound 0.001 µM,0.448
same,relative viability,COR-L23; first compound 0.003162 µM,0.52
same,relative viability,COR-L23; first compound 0.01 µM,0.591
same,relative viability,COR-L23; first compound 0.03162 µM,0.42
same,relative viability,COR-L23; first compound 0.1 µM,0.45
same,relative viability,NCI-H2228; first compound 0.003162 µM,0.388
same,relative viability,NCI-H2228; first compound 0.01 µM,0.383
same,relative viability,NCI-H2228; first compound 0.03162 µM,0.259
same,relative viability,NCI-H2228; first compound 0.1 µM,0.278
same,relative viability,ABC-1; first compound 0.001 µM,0.219
same,relative viability,ABC-1; first compound 0.003162 µM,0.243
same,relative viability,ABC-1; first compound 0.01 µM,0.259
same,relative viability,ABC-1; first compound 0.03162 µM,0.249
same,relative viability,ABC-1; first compound 0.1 µM,0.264
same,relative viability,HCC-366; first compound 0.001 µM,0.623
same,relative viability,HCC-366; first compound 0.003162 µM,0.584
same,relative viability,HCC-366; first compound 0.01 µM,0.655
same,relative viability,HCC-366; first compound 0.03162 µM,0.257
same,relative viability,HCC-366; first compound 0.1 µM,0.555
same,relative viability,SK-MES-1; first compound 0.001 µM,0.614
same,relative viability,SK-MES-1; first compound 0.003162 µM,0.734
same,relative viability,SK-MES-1; first compound 0.01 µM,0.74
same,relative viability,SK-MES-1; first compound 0.03162 µM,0.566
same,relative viability,SK-MES-1; first compound 0.1 µM,0.554
same,relative viability,PC-14; first compound 0.001 µM,0.573
same,relative viability,PC-14; first compound 0.003162 µM,0.538
same,relative viability,PC-14; first compound 0.01 µM,0.546
same,relative viability,PC-14; first compound 0.03162 µM,0.459
same,relative viability,PC-14; first compound 0.1 µM,0.542
same,relative viability,HCC-15; first compound 0.001 µM,0.436
same,relative viability,HCC-15; first compound 0.003162 µM,0.598
same,relative viability,HCC-15; first compound 0.01 µM,0.508
same,relative viability,HCC-15; first compound 0.03162 µM,0.331
same,relative viability,HCC-15; first compound 0.1 µM,0.404
same,relative viability,NCI-H1666; first compound 0.001 µM,0.605
same,relative viability,NCI-H1666; first compound 0.003162 µM,0.615
same,relative viability,NCI-H1666; first compound 0.01 µM,0.578
same,relative viability,NCI-H1666; first compound 0.03162 µM,0.545
same,relative viability,NCI-H1666; first compound 0.1 µM,0.652
